Measurements taken from patent US7601686B2, “Hepatitis C virus inhibitors” (Bristol-Myers Squibb Company, priority 2005, dated 2009).
Where two headings read alike, the source gives them in different places.

Columns and labels:
[1] = target: T1, porcine pancreatic elastase (PPE) (Sus scrofa, UniProt P00772); test: Specificity assay, porcine pancreatic elastase; assay type: biochemical; details: 2 h enzyme-inhibitor pre-incubation; read-out: PPE activity in the specificity assays
T1 construct: purchased Sigma
T1 sequence (P00772 27-266): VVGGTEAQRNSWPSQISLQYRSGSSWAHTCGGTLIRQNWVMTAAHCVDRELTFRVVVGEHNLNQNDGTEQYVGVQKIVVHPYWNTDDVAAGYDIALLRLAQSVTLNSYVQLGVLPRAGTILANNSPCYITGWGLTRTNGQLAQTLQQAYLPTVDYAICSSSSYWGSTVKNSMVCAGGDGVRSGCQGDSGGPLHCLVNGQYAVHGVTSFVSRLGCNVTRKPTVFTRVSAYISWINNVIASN
Description: (§1) The specificities of compounds of the present disclosure were determined against a variety of serine proteases: human neutrophil elastase (HNE), porcine pancreatic elastase (PPE) and human pancreatic chymotrypsin and one cysteine protease: human liver cathepsin B. In all cases a 96-well plate format protocol using colorimetric p-nitroaniline (pNA) substrate specific for each enzyme was used as described previously (PCT Patent Application No. WO 00/09543) with some modifications to the serine protease assays. All enzymes were purchased from Sigma while the substrates were from Bachem.
(§2) Each assay included a 2 h enzyme-inhibitor pre-incubation at room temperature followed by addition of substrate and hydrolysis to ˜30% conversion as measured on a Spectramax Pro microplate reader. Compound concentrations varied from 100 to 0.4 μM depending on their potency.
(§3) The final conditions for each assay were the same as those described in WO 03/099274, page 623.
(§4) The percentage of inhibition was calculated using the formula: [1−((UVinh−UVblank)/(UVctl−UVblank))]×100
(§5) A non-linear curve fit was applied to the inhibition-concentration data, and the 50% effective concentration (IC50) was calculated by the use of Excel XLfit software.

[2] = target: T2, human neutrophil elastase (HNE) (Homo sapiens, UniProt P08246); test: Specificity assay, human neutrophil elastase; assay type: biochemical; details: 2 h enzyme-inhibitor pre-incubation; read-out: HLE activity in the specificity assays
T2 construct: purchased Sigma
T2 sequence (P08246 30-267): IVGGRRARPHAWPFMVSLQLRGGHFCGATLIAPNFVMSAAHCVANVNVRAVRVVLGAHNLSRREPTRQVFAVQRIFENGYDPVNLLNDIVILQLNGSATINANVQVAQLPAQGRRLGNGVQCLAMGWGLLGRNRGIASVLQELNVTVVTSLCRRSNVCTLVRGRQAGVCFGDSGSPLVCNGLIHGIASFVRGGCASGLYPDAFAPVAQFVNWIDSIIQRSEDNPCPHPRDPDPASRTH
Description: as §1, §2, §3, §4, §5

[3] = tested on: HCV replicon in HUH-7 cells; test: HCV replicon FRET assay; assay type: cell-based, Hepatitis C virus (strain 1b); details: Hepatitis C virus
Summary of the method: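 HUH-7 cells stably carrying a genotype 1b subgenomic HCV replicon (neo selection) treated with compound for 4 days at 37 °C, 0.5% DMSO final. Cytotoxicity (CC50) from alamar Blue fluorescence after 4 h (ex 530/em 580 nm), before the FRET replication read-out.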

## C=CC1CC1(NC(=O)[C@@H]1C[C@@H](NC(=O)c2cc(-c3ccccc3)nc3ccccc23)CN1C(=O)[C@@H](NC(=O)CC1CC1)C(C)(C)C)C(=O)NS(=O)(=O)C1CC1 (stereo partly shown) [Compound 9]
[1]
  IC50: > 100 µM
[2]
  IC50: > 100 µM
[3]; HCV replicon cell assay, HUH-7, read-out: EC50 Range
  EC50: 0.15 to 15 µM
[3]; HCV replicon, HUH-7 cells, read-out: EC50 value in the replicon assay
  EC50: 2.25 µM
